Measured values taken from patent US12150981B2, “Chimeric antigen receptor-expressing T cells as anti-cancer therapeutics” (Purdue Research Foundation, priority 2012, dated 2024).

Columns and labels:
[1] = tested on: anti-FITC scFv in CAR4-1BBZ on transduced T cells; experiment: Binding of FITC-Folate conjugates to CAR4-1BBZ transduced T cells, confocal microscopy; parameters: species or system mouse
Description: To examine the ability of the transduced T cells containing CAR4-1BBZ to bind the FITC-Folate conjugates, binding assays with the FITC-Folate conjugate and the FITC-(PEG)12-Folate conjugate were performed. Since the excitation wavelength of FITC in the FITC-Folate conjugates overlapped with copGFP in CAR4-1BB transduced T cells, it was difficult to distinguish between FITC binding and copGFP expression. Therefore, an anti-Folate Acid (FA) monoclonal antibody and a fluorephore (excitation 640 nm)-labeled anti-mouse IgG antibody were utilized.
First, the transduced T cells were incubated with FITC-Folate or FITC-(PEG)12-Folate conjugates at room temperature for 1 hour. After washing with 1×PBS, transduced T cells were incubated with anti-FA monoclonal antibody (1:15 dilution) for 1 hour. After another washing with 1×PBS, transduced T cells further were incubated with fluorophore (excitation 640 nm) labeled anti-mouse IgG antibody (1:50 dilution). Finally, unbound antibodies were washed away and a confocal microscope was used to confirm the FITC-Folate and FITC-(PEG)12-Folate conjugates binding ability. All data was analyzed by Olympus Fluoview software. […] Simultaneously, binding of FITC-Folate and FITC-(PEG)12-Folate conjugates (arrows) were also detected on the CAR4-1BBZ transduced T cells.

[2] = tested on: FR+ L1210A cells; experiment: 51Chromium release cytotoxicity assay of anti-FITC CAR-expressing T cells against L1210A cells; assay type: cell-based, mouse; conditions: 70 nM conjugate, effector:target 20:1, 4-10 hours
Description: In order to explore whether CAR-expressing T cells can kill cancer cells, ^51Chromium release assays were conducted. In this assay, cancer cells are labeled with ^51Cr. When cancer cells are lysed, ^51Cr would be released from cancer cells to supernatant. By measuring ^51Cr in supernatant, the number of cancer cells killed can be determined.
First, target cancer cells L1210A were incubated in 50 μL growth medium containing 50 μCi ^51Chromium to get labeled. After washing with PBS×3, L1210A cells were resuspended and incubated at 37° C. for 1 hour in the growth medium containing 70 nM FITC-Folate conjugate or FITC-(PEG)12-Folate conjugate. After washing away excess FITC conjugates, 5×10^3 target cancer cells were added in each well of 96-well plates. […] After incubation for 4-10 hours, 20 μL aliquots of cell-free supernatant were harvested and ^51Cr in the supernatants was measured with a scintillation counter or a γ-counter.
Percent specific cytolysis was calculated using following formula: % cytolysis=(Experimental ^51Cr release−control ^51Cr release)/(Maximum ^51Cr release−control ^51Cr release)×100
Control wells contained only target cancer cells, effector T cells were never added in these wells. Maximum ^51Cr release was determined by measuring ^51Cr release from labeled target cells treated with 2.5% SDS to lyse all cells.

[3] = tested on: folate receptor (FR) on L1210A cells; experiment: Binding of FITC-Folate conjugates to FR positive L1210A cancer cells, fluorescence/confocal microscopy; parameters: species or system mouse
Description: (§1) The ability of the FITC-Folate and FITC-(PEG)12-Folate conjugates to bind folate receptor (FR) positive cancer cells was next investigated. FR positive cells lines L1210A (Mouse lymphocytic leukemia) and KB (Mouth epidermal carcinoma), which are FR positive cell lines, were used to test the binding affinity of the FITC-Folate conjugates. Briefly, 3-4×10^4 cancer cells were prepared to perform binding affinity assays with FITC-Folate and FITC-(PEG)12-Folate conjugates. With two different concentrations (e.g. 20 nM, 70 nM), the two FITC-Folate conjugates were incubated with cancer cells at room temperature for 1 hour. Since both FITC-Folate conjugates have fluorescence, the binding ability of FITC-Folate conjugates to cancer cells can be detected by florescence microscopy. After two washes with 1× phosphate buffered saline (PBS) to remove all unbound compound, the cancer cells were observed by confocal microscope. In order to specify whether FITC-Folate conjugates bind to cancer cells via FR on the surface of cancer cells, Folate Acid was also incubated with cancer cells as a competition compound. […] As shown in competition panel, addition of 50× excess folate acid blocked FITC-Folate binding with these cancer cells, which indicates the specific binding is between folate acid and FR on cell surface.

[4] = biological target: T1, folate receptor (FR) on KB cells (Homo sapiens, UniProt P15328); experiment: Binding of FITC-Folate conjugates to FR positive KB cancer cells, fluorescence/confocal microscopy
T1 construct: endogenous in cells; host or cells: KB cells
T1 sequence (P15328 25-234): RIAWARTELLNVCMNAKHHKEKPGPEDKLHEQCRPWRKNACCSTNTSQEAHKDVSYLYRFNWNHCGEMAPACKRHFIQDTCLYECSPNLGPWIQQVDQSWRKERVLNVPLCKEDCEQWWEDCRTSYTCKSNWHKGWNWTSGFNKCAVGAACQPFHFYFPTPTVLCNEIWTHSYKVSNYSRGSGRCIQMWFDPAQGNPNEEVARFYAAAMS
Description: as §1

[5] = tested on: FR+ KB cells; experiment: 51Chromium release cytotoxicity assay of anti-FITC CAR-expressing T cells against KB cells; assay type: cell-based, human; conditions: 70 nM conjugate, effector:target 20:1, 4-10 hours
[6] = tested on: PSMA-positive human prostate cancer cells; conditions: DUPA-(99m)Tc, ref [8]; cited from earlier work
[7] = 20 nM, 70 nM, room temperature 1 hour

binding to KB cells via FR [4, 7]	binding to KB cells in the presence of competitor ([4]; 50× excess folate acid)	cellular localization in KB cells (internalization) ([4]; FIG. 3A, 3C)	Structure (SMILES)	binding to non-transduced T cells ([1]; non-transduced T cells, same protocol)	binding to anti-FITC in CAR4-1BBZ transduced T cells ([1]; room temperature 1 hour, detected with anti-FA antibody and labeled anti-mouse IgG)	cancer cell cytolysis by CAR-expressing T cells in the presence of conjugate [2]	binding to L1210A cells via FR [3, 7]	binding to L1210A cells in the presence of competitor ([3]; 50× excess folate acid)	cancer cell cytolysis by CAR-expressing T cells in the presence of conjugate [5]	Kd [6]
can bind	blocked	internalized into KB cell cytoplasm	Nc1nc2ncc(CNc3ccc(C(=O)N[C@@H](CCC(=O)NCCNC(=S)Nc4ccc(-c5c6ccc(=O)cc-6oc6cc(O)ccc56)c(C(=O)O)c4)C(=O)O)cc3)nc2c(=O)[nH]1 (single isomer, unassigned) [FITC-Folate]	not to non-transduced T cells	successfully bound	~29%	can bind	blocked	~18%	–
–	–	–	O=C(O)CCC(NC(=O)NC(CCC(=O)O)C(=O)O)C(=O)O (stereo not shown) [DUPA, 2-[3-(1,3-dicarboxypropyl)ureido] pentanedioic acid]	–	–	–	–	–	–	14 nM
